Test results published in patent US3987047A, “Tetrahydro-azepinoquinolines” (Boehringer Ingelheim GmbH, priority 1973, dated 1976).
Where a name gives a salt, the structure may show the parent alone.

Experiments:
[1] = Acute toxicity (LD50 in mice); conditions: in vivo, sc; for selectivity ratio: LD50 mouse s.c. / anorectic ED50 rat s.c., read-out: Therapeutic ratio LD50/ED50; for LD50 at 24 h: mouse, 24 hours observation
Method: Groups of 10 male mice of the NMRI-strain with body weights between 18 and 30 gm. The animals were put individually into cylindrical jars and received by subcutaneous injection under the dorsal skin gradually increasing doses from 0.1 to 0.2 ml/10 gm of body weight of the test compound. The limits for the test dosage range had previously been determined on individual mice. The symptoms of poisoning were recorded. After an observation period of 24 hours the dead animals were counted. The determination of the median lethal dose (LD50) according to G. KARBER [Arch. exper. Path. Pharmak. 162, 480, (1931)] concluded the test.

Male albino rats = test: Anorectic test (effect on food intake of fasted rats); assay type: in vivo; conditions: sc; rat; dose which reduced the food intake by 50% over the reference value; 2 hour test period
Method: Male albino rats with starting weights from 200 to 250 gm, kept in so-called makrolon-cages, three to a cage, in an air-conditioned room at a temperature of 22 ± 1° C and about 50 % relative humidity. Between test runs, food (standard feed Altromin R) and drinking water were freely accessible.
A combination metabolism and motility test cage, described by J. M. van ROSSUM and F. SIMONS (Psychopharmacologia 14, 248, 1969) was used. With the aid of this device it is possible to measure the food intake and motoric activity on the same test animal.
For effecting and evaluating this test, a modified version of the method of J. SPENGLER and P. WASER [Arch. exp. Path. Pharmcol. 237, 171 (1959)] was used. A test group consisting of 6 ats was used for the test over a 3months' period, once a week, always on the same day of the week and at the same time of day. In preparation for the test, the animals were fasted for 24 hours while they had free access to drinking water. Then, they were put singly into the above-mentioned test cage for 2 hours, where a preweighed quantity of feed (Altromin-R, pulverized) and drinking water was offered ad libitum. Scattered feed was collected carefully, the consumed quantity of feed was determined by weighing the remaining quantity, and the food intake was calculated in terms of grams per 100 gm body weight. the test compound was injected subcutaneously or administered orally by esophageal sound at the beginning of the test period. […] Therefore, each group served as its own control. In the control tests the rats were given at the beginning of the 2 hour test period, 0.1 ml/100 gm water orally or 0.1 ml/100 gm physiological NaCl-solution subcutaneously. Before the test runs, 3 to 4 control tests were made and repeated later at intervals of 5 weeks. The average amount of the food intake which the animals had shown in the control tests was taken as the reference value. The anorectic activity of the test compound was expressed in terms of the percentage reduction of this reference value, and the median anorectic dose (ED50), i.e. the dose which reduced the food intake by 50% over the reference value was graphically calculated.

With `CCN1CCc2nc3ccccc3c(C)c2CC1.Cl.Cl` [A, 3-ethyl-1,2,4,5-tetrahydro-11-methyl-3H-azepino[4,5-b]quinoline dihydrochloride] the selectivity ratio [1] was 95, the LD50 at 24 h [1] was 180 mg/kg and the ED50 (Male albino rats) was 1.9 mg/kg.

`Cc1c2c(nc3ccccc13)CCCNC2.Cl.Cl` [B, 2,3,4,5-tetrahydro-11-methyl-1H-azepino[4,3-b]quinoline dihydrochloride] gave a selectivity ratio [1] of 177, an LD50 at 24 h [1] of 195 mg/kg and an ED50 (Male albino rats) of 1.1 mg/kg.

`Cc1c2c(nc3ccccc13)CCNCC2.Cl.Cl` [C, 1,2,4,5-tetrahydro-11-methyl-3H-azepino[4,5-b]quinoline dihydrochloride] showed a selectivity ratio [1] of 415, an LD50 at 24 h [1] of 83 mg/kg and an ED50 (Male albino rats) of 0.2 mg/kg.

In the case of `CCCc1c2c(nc3ccccc13)CCNCC2.Cl.Cl` [Compound E, 1,2,4,5-tetrahydro-11-propyl-3H-azepino[4,5-b]quinoline dihydrochloride], the selectivity ratio [1] is reported as 164, the LD50 at 24 h [1] is reported as 148 mg/kg and the ED50 (Male albino rats) is reported as 0.9 mg/kg.

Work on `CCOC(=O)N1CCc2nc3ccccc3c(C)c2CC1` [D, 1,2,4,5-tetrahydro-11-methyl-3-azepino[4,5-b]quinoline-carboxylic acid ethyl ester] yielded a selectivity ratio [1] of 1010, an LD50 at 24 h [1] of 810 mg/kg and an ED50 (Male albino rats) of 0.8 mg/kg.

In the case of `Cc1c2c(nc3ccc(Cl)cc13)CCNCC2.Cl.Cl` [F, 9-chloro-1,2,4,5-tetrahydro-11-methyl-3H-azepino[4,5-b]quinoline dihydrochloride], the selectivity ratio [1] is reported as 143, the LD50 at 24 h [1] is reported as 215 mg/kg and the ED50 (Male albino rats) is reported as 1.5 mg/kg.

Work on `Cc1c2c([n+]([O-])c3ccccc13)CCNCC2` [G, 1,2,4,5-tetrahydro-11-methyl-3H-azepino[4,5-b]quinoline-6-N-oxide hydrochloride] yielded a selectivity ratio [1] of 394, an LD50 at 24 h [1] of 315 mg/kg and an ED50 (Male albino rats) of 0.8 mg/kg.

`Cc1c2c(nc3ccccc13)C(O)CNCC2.Cl.Cl` (stereo not drawn) [H, 5-hydroxy-1,2,4,5-tetrahydro-11-methyl-3H-azepino[4,5-b]quinoline dihydrochloride] showed a selectivity ratio [1] of 420, an LD50 at 24 h [1] of 126 mg/kg and an ED50 (Male albino rats) of 0.3 mg/kg.

`CCCN1CCc2nc3ccccc3c(C)c2CC1.Cl.Cl` [I, 1,2,4,5-tetrahydro-11-methyl-3propyl-3H-azepino[4,5-b]quinoline dihydrochloride] showed an ED50 (Male albino rats) of 0.9 mg/kg.

`Cc1c2c(nc3ccccc13)CCN(C(=O)OC(C)(C)C)CC2.Cl` [J, 1,2,4,5-tetrahydro-11-methyl-3azepino[4,5-b]quinoline-carboxylic acid tert.butyl ester hydrochloride] showed an ED50 (Male albino rats) of 1.1 mg/kg.

Molecule `Cc1c2c(nc3cccc(Cl)c13)CCNCC2` [K, 10-chloro-1,2,4,5-tetrahydro-11-methyl-3H-azepino[4,5-b]quinoline dihydrochloide] has an ED50 (Male albino rats) of 1.3 mg/kg.

`CCOC(=O)N1CCc2c(nc3ccccc3c2C)C(O)C1` (stereo not drawn) [L, 5-hydroxy-1,2,4,5-tetrahydro-11-methyl-3-azepino[4,5-b]quinoline-carboxylic acid ethyl ester] gave an ED50 (Male albino rats) of 4 mg/kg.

With `Cc1c2c(nc3ccccc13)CCN(CC(C)O)CC2.Cl.Cl` (stereo not drawn) [M, 3-(2-hydroxy-propyl)-1,2,4,5-tetrahydro-11-methyl-3H-azepino[4,5-b]quinoline dihydrochloride] the ED50 (Male albino rats) was 2 mg/kg.

`COC(=O)N1CCc2nc3ccccc3c(C)c2CC1` [N, 1,2,4,5-tetrahydro-11-methyl-3-azepino[4,5-b]quinoline-carboxylic acid methyl ester] gave an ED50 (Male albino rats) of 1.8 mg/kg.
